In patent US20240270762A1, “PENICILLIN-BINDING PROTEIN INHIBITORS” (priority 2021, published 2024) one finds EC50 data, which are given here for 16 molecules.

Bounds are passed on as bounds.

One experiment has as its target T1, A. baumannii PBP1a (Acinetobacter baumannii, UniProt A0ABX6CK30).
T1 sequence (A0ABX6CK30 1-851): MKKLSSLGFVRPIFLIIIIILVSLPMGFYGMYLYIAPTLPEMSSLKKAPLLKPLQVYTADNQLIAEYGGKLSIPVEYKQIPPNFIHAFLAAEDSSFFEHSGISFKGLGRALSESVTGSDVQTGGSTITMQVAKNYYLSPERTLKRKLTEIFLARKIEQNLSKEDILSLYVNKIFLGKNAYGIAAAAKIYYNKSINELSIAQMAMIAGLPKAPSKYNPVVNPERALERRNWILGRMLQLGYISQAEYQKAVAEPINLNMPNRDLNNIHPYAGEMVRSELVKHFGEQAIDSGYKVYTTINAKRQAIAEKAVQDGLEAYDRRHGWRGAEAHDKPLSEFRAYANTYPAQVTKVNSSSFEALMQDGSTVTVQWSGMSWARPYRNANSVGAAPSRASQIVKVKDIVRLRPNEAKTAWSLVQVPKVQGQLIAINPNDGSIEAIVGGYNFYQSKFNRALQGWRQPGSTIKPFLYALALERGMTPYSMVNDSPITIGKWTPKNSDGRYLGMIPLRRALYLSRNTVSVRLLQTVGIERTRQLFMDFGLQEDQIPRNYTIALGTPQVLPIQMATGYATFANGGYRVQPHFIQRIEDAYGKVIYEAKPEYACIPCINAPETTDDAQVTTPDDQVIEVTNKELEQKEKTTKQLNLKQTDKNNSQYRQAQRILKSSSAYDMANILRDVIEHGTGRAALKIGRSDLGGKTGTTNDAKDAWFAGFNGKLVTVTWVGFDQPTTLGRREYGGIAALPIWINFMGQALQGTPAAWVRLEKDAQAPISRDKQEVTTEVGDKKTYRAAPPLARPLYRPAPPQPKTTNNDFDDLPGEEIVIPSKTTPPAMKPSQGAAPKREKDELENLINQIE
Briefly: Bocillin-FL competition binding via gel filtration, A. baumannii PBP1a. The conditions noted are these: competition binding assay using Bocillin-FL via gel filtration; read-out: A. baumannii PBP1a Potency. A digest of the protocol:
(§1)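 Competitive equilibrium binding with Bocillin-FL reporter: PBP pre-incubated with inhibitor dilutions, Bocillin-FL added, 15 min incubation. Labelled enzyme isolated by size-exclusion spin plates, fluorescence measured; EC50 obtained by fitting bound fraction against inhibitor concentration with a Hill-coefficient model.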

The target of the next experiment is A. baumannii PBP2 (Acinetobacter baumannii, UniProt D0C8Z9). Nature of the experiment: Bocillin-FL competition binding via gel filtration, A. baumannii PBP2. A digest of the protocol: as §1
A. baumannii PBP2, sequence (D0C8Z9 whole entry): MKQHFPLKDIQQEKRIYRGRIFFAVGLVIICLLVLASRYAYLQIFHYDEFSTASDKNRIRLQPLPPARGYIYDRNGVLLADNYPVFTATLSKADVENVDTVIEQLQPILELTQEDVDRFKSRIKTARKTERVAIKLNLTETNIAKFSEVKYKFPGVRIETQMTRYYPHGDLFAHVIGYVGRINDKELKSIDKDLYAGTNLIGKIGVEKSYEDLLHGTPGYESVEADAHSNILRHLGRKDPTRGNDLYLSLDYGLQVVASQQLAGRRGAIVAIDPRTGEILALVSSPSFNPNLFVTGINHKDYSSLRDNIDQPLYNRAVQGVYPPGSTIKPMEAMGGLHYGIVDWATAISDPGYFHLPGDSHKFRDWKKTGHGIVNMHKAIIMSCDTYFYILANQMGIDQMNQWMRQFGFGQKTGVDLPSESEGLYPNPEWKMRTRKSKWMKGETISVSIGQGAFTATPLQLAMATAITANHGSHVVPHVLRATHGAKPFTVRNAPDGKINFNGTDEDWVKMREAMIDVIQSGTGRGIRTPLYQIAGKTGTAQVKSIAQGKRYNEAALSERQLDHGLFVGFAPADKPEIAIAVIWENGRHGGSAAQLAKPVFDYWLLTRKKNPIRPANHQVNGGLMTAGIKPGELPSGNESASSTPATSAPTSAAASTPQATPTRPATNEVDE

With `CN(CCN1CCN(C(=O)N[C@@H](C(=O)N[C@H]2Cc3ccc(F)c(C(=O)O)c3OB2O)c2cc(F)c(O)c(O)c2Cl)C(=O)C1=O)Cc1cccnc1` [Example 201, (R)-3-((R)-2-(2-chloro-5-fluoro-3,4-dihydroxyphenyl)-2-(4-(2-(methyl(pyridin-3-ylmethyl)amino)ethyl)-2,3-dioxopiperazine-1-carboxamido)acetamido)-7-fluoro-2-hydroxy-3,4-dihydro-2H-benzo[e][1,2]oxaborinine-8-carboxylic acid], the EC50 at A. baumannii PBP1a was 10 to 50 µM.
With `O=C(NCCCN1CCN(C(=O)NC(C(=O)N[C@H]2Cc3ccc(F)c(C(=O)O)c3OB2O)c2cc(F)c(O)c(O)c2Cl)C(=O)C1=O)c1ccccc1` (stereo partly drawn) [Example 202, (3R)-3-(2-(4-(3-benzamidopropyl)-2,3-dioxopiperazine-1-carboxamido)-2-(2-chloro-5-fluoro-3,4-dihydroxyphenyl)acetamido)-7-fluoro-2-hydroxy-3,4-dihydro-2H-benzo[e][1,2]oxaborinine-8-carboxylic acid], the EC50 at A. baumannii PBP1a is 10 to 50 µM; at A. baumannii PBP2, 50 to 250 µM.
Turning to `O=C(NCCN1CCN(C(=O)NC(C(=O)N[C@H]2Cc3ccc(F)c(C(=O)O)c3OB2O)c2cc(F)c(O)c(O)c2Cl)C(=O)C1=O)c1ccccc1` (stereo partly drawn) [Example 207, (3R)-3-(2-(4-(2-benzamidoethyl)-2,3-dioxopiperazine-1-carboxamido)-2-(2-chloro-5-fluoro-3,4-dihydroxyphenyl)acetamido)-7-fluoro-2-hydroxy-3,4-dihydro-2H-benzo[e][1,2]oxaborinine-8-carboxylic acid], on A. baumannii PBP1a, the EC50 lay in the range of 10 to 50 µM.
In the case of `O=C(NCCN1CCN(C(=O)NC(C(=O)N[C@H]2Cc3ccc(F)c(C(=O)O)c3OB2O)c2cc(F)c(O)c(O)c2Cl)C(=O)C1=O)Nc1ccc(O)cc1` (stereo partly drawn) [Example 219, (3R)-3-(2-(2-chloro-5-fluoro-3,4-dihydroxyphenyl)-2-(4-(2-(3-(4-hydroxyphenyl)ureido)ethyl)-2,3-dioxopiperazine-1-carboxamido)acetamido)-7-fluoro-2-hydroxy-3,4-dihydro-2H-benzo[e][1,2]oxaborinine-8-carboxylic acid], the EC50 is less than 10 µM at A. baumannii PBP1a and 10 to 50 µM on A. baumannii PBP2.
With `O=C(NCCN1CCN(C(=O)NC(C(=O)N[C@H]2Cc3ccc(F)c(C(=O)O)c3OB2O)c2cc(F)c(O)c(O)c2Cl)C(=O)C1=O)Nc1cccc(O)c1` (stereo partly drawn) [Example 220, (3R)-3-(2-(2-chloro-5-fluoro-3,4-dihydroxyphenyl)-2-(4-(2-(3-(3-hydroxyphenyl)ureido)ethyl)-2,3-dioxopiperazine-1-carboxamido)acetamido)-7-fluoro-2-hydroxy-3,4-dihydro-2H-benzo[e][1,2]oxaborinine-8-carboxylic acid], the EC50 at A. baumannii PBP1a and at A. baumannii PBP2 was less than 10 µM in each case.
For `O=C(CN1CCN(C(=O)NC(C(=O)N[C@H]2Cc3ccc(F)c(C(=O)O)c3OB2O)c2cc(F)c(O)c(O)c2Cl)C(=O)C1=O)Nc1ccc(O)cc1` (stereo partly drawn) [Example 230, (3R)-3-(2-(2-chloro-5-fluoro-3,4-dihydroxyphenyl)-2-(4-(2-((4-hydroxyphenyl)amino)-2-oxoethyl)-2,3-dioxopiperazine-1-carboxamido)acetamido)-7-fluoro-2-hydroxy-3,4-dihydro-2H-benzo[e][1,2]oxaborinine-8-carboxylic acid], on A. baumannii PBP1a, the EC50 fell in the range of 10 to 50 µM.
Turning to `O=C(NCCN1CCN(C(=O)NC(C(=O)N[C@H]2Cc3ccc(F)c(C(=O)O)c3OB2O)c2cc(F)c(O)c(O)c2Cl)C1=O)c1ccc(O)cc1` (stereo partly drawn) [Example 243, (3R)-3-(2-(2-chloro-5-fluoro-3,4-dihydroxyphenyl)-2-(3-(2-(4-hydroxybenzamido)ethyl)-2-oxoimidazolidine-1-carboxamido)acetamido)-7-fluoro-2-hydroxy-3,4-dihydro-2H-benzo[e][1,2]oxaborinine-8-carboxylic acid], the EC50 on A. baumannii PBP1a is 10 to 50 µM.
In the case of `O=C(NCCN1CCN(C(=O)NC(C(=O)N[C@H]2Cc3ccc(F)c(C(=O)O)c3OB2O)c2cc(F)c(O)c(O)c2Cl)C1=O)c1cccc(O)c1` (stereo partly drawn) [Example 244, (3R)-3-(2-(2-chloro-5-fluoro-3,4-dihydroxyphenyl)-2-(3-(2-(3-hydroxybenzamido)ethyl)-2-oxoimidazolidine-1-carboxamido)acetamido)-7-fluoro-2-hydroxy-3,4-dihydro-2H-benzo[e][1,2]oxaborinine-8-carboxylic acid], at A. baumannii PBP1a, the EC50 lay within 10 to 50 µM.
As for `O=C(NCCCN1CCN(C(=O)N[C@@H](C(=O)N[C@H]2Cc3ccc(F)c(C(=O)O)c3OB2O)c2cc(F)c(O)c(O)c2Cl)C1=O)c1ccccc1` [Example 253, (R)-3-((R)-2-(3-(3-benzamidopropyl)-2-oxoimidazolidine-1-carboxamido)-2-(2-chloro-5-fluoro-3,4-dihydroxyphenyl)acetamido)-7-fluoro-2-hydroxy-3,4-dihydro-2H-benzo[e][1,2]oxaborinine-8-carboxylic acid], the EC50 on A. baumannii PBP1a is 10 to 50 µM; on A. baumannii PBP2, less than 10 µM.
`O=C(NCCS(=O)(=O)N1CCN(C(=O)NC(C(=O)N[C@H]2Cc3ccc(F)c(C(=O)O)c3OB2O)c2cc(F)c(O)c(O)c2Cl)C1=O)c1ccccc1` (stereo partly drawn) [Example 260, (3R)-3-(2-(3-((2-benzamidoethyl)sulfonyl)-2-oxoimidazolidine-1-carboxamido)-2-(2-chloro-5-fluoro-3,4-dihydroxyphenyl)acetamido)-7-fluoro-2-hydroxy-3,4-dihydro-2H-benzo[e][1,2]oxaborinine-8-carboxylic acid]: on A. baumannii PBP2, the EC50 was in the range of 10 to 50 µM.
Consider `O=C(NCCS(=O)(=O)N1CCN(C(=O)NC(C(=O)N[C@H]2Cc3ccc(F)c(C(=O)O)c3OB2O)c2cc(F)c(O)c(O)c2Cl)C1=O)c1cccc(O)c1` (stereo partly drawn) [Example 261, (3R)-3-(2-(2-chloro-5-fluoro-3,4-dihydroxyphenyl)-2-(3-((2-(3-hydroxybenzamido)ethyl)sulfonyl)-2-oxoimidazolidine-1-carboxamido)acetamido)-7-fluoro-2-hydroxy-3,4-dihydro-2H-benzo[e][1,2]oxaborinine-8-carboxylic acid], for which the EC50 at A. baumannii PBP1a and on A. baumannii PBP2 was 10 to 50 µM each time.
As for `O=C(NCCS(=O)(=O)N1CCN(C(=O)NC(C(=O)N[C@H]2Cc3ccc(F)c(C(=O)O)c3OB2O)c2cc(F)c(O)c(O)c2Cl)C1=O)Nc1cccc(O)c1` (stereo partly drawn) [Example 266, (3R)-3-(2-(2-chloro-5-fluoro-3,4-dihydroxyphenyl)-2-(3-((2-(3-(3-hydroxyphenyl)ureido)ethyl)sulfonyl)-2-oxoimidazolidine-1-carboxamido)acetamido)-7-fluoro-2-hydroxy-3,4-dihydro-2H-benzo[e][1,2]oxaborinine-8-carboxylic acid], the EC50 is less than 10 µM at A. baumannii PBP1a and 10 to 50 µM on A. baumannii PBP2.
Turning to `O=C(NCCCS(=O)(=O)N1CCN(C(=O)NC(C(=O)N[C@H]2Cc3ccc(F)c(C(=O)O)c3OB2O)c2cc(F)c(O)c(O)c2Cl)C1=O)c1ccncc1` (stereo partly drawn) [Example 272, (3R)-3-(2-(2-chloro-5-fluoro-3,4-dihydroxyphenyl)-2-(3-((3-(isonicotinamido)propyl)sulfonyl)-2-oxoimidazolidine-1-carboxamido)acetamido)-7-fluoro-2-hydroxy-3,4-dihydro-2H-benzo[e][1,2]oxaborinine-8-carboxylic acid], at A. baumannii PBP1a, the EC50 lay in the range of 10 to 50 µM.
In the case of `O=C(NCCCS(=O)(=O)N1CCN(C(=O)NC(C(=O)N[C@H]2Cc3ccc(F)c(C(=O)O)c3OB2O)c2cc(F)c(O)c(O)c2Cl)C1=O)c1cccnc1` (stereo partly drawn) [Example 273, (3R)-3-(2-(2-chloro-5-fluoro-3,4-dihydroxyphenyl)-2-(3-((3-(nicotinamido)propyl)sulfonyl)-2-oxoimidazolidine-1-carboxamido)acetamido)-7-fluoro-2-hydroxy-3,4-dihydro-2H-benzo[e][1,2]oxaborinine-8-carboxylic acid], the EC50 on A. baumannii PBP2 fell in the range of 10 to 50 µM.
Regarding `O=C(NCCCS(=O)(=O)N1CCN(C(=O)NC(C(=O)N[C@H]2Cc3ccc(F)c(C(=O)O)c3OB2O)c2cc(F)c(O)c(O)c2Cl)C1=O)c1nccs1` (stereo partly drawn) [Example 274, (3R)-3-(2-(2-chloro-5-fluoro-3,4-dihydroxyphenyl)-2-(2-oxo-3-((3-(thiazole-2-carboxamido)propyl)sulfonyl)imidazolidine-1-carboxamido)acetamido)-7-fluoro-2-hydroxy-3,4-dihydro-2H-benzo[e][1,2]oxaborinine-8-carboxylic acid], the EC50 at A. baumannii PBP1a is less than 10 µM.
On the same count and under the same terms, the result for `O=C(NCCCS(=O)(=O)N1CCN(C(=O)NC(C(=O)N[C@H]2Cc3ccc(F)c(C(=O)O)c3OB2O)c2cc(F)c(O)c(O)c2Cl)C1=O)Nc1ccc(O)cc1` (stereo partly drawn) [Example 276, (3R)-3-(2-(2-chloro-5-fluoro-3,4-dihydroxyphenyl)-2-(3-((3-(3-(4-hydroxyphenyl)ureido)propyl)sulfonyl)-2-oxoimidazolidine-1-carboxamido)acetamido)-7-fluoro-2-hydroxy-3,4-dihydro-2H-benzo[e][1,2]oxaborinine-8-carboxylic acid] reads less than 10 µM.
